Data from PMC9065678, “BI 1015550 is a PDE4B Inhibitor and a Clinical Drug Candidate for the Oral Treatment of Idiopathic Pulmonary Fibrosis” (Frontiers in Pharmacology, 2022).

What was measured:
PDE4B = target: T1, PDE4B (Homo sapiens, UniProt Q07343); assay: Recombinant PDE activity, scintillation proximity assay: PDE4B; type: biochemical
T1 construct: PDE4B NG_029038: AA 152–484; made in house; host or cells: SF9 insect cells (baculovirus, Bac-To-Bac, pFastbac)
Method: (§1) For the preparation of human recombinant PDEs of interest, the Bac-To-Bac baculoviral expression system from Invitrogen (Carlsbad, CA, United States) was used according to the instruction manual. […] The plasmids were transformed into DH10Bac bacteria, SF9 insect cells were transfected with the bacmid DNA, and the resulting baculoviruses were stored and used for further rounds of infections. For protein production, SF9 cells were infected until a cytopathic effect was visible (after about 72 h), the SF9 cells were harvested and broken up by 3 freeze/thaw cycles, and by shearing 10 times through a 0.1 mm cannula using a syringe. […] The Phosphodiesterase Scintillation Proximity Assays (TRKQ7090 for [^3H]cAMP, GE Healthcare Europe GmbH, Chalfont St Giles, United Kingdom, and TRKQ7100 for [^3H]cGMP, Perkin Elmer, Waltham, MA, United States) were performed essentially according to the instruction manual. […] Assay solutions containing recombinant baculoviral-expressed PDE (to give an activity of 5.000–20.000 cpm corresponding to 5–20% of total activity added), 50 mmol/L Tris/HCl pH 7.5, 8.3 mmol/L MgCl2, 1.7 mmol/L EGTA, and 10 µL radiolabeled substrate (0.05 µCi in H2O) were incubated for 1 h at 30°C (final volume 100 μL).

PDE4C = target: T2, PDE4C (Homo sapiens, UniProt Q08493); assay: Recombinant PDE activity, scintillation proximity assay: PDE4C; type: biochemical; settings: substrate [3H]cAMP, means from n independent experiments, read-out: IC50 PDE4C2
T2 construct: made in house; host or cells: SF9 insect cells (baculovirus, Bac-To-Bac, pFastbac)
T2 sequence (Q08493 107-712): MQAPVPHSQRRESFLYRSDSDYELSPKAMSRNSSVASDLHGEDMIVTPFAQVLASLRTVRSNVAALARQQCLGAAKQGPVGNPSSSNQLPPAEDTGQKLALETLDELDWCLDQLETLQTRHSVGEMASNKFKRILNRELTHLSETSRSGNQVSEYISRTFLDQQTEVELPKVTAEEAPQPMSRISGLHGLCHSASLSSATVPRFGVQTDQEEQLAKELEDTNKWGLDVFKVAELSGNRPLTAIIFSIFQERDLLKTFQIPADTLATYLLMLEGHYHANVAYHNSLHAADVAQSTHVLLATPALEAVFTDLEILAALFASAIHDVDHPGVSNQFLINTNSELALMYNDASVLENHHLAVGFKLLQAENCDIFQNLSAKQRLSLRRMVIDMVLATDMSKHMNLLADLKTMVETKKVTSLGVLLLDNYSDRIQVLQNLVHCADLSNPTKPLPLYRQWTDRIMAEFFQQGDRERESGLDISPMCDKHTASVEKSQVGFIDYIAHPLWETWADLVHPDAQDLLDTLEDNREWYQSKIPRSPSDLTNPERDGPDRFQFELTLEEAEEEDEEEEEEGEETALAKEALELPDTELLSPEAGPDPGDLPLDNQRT
Method: as §1

Suncus murinus = assay: Determination of emesis in male Suncus murinus; type: in vivo
Method: All animals (50–55 g) were dosed orally by gavage immediately before transfer to whole-body plethysmography boxes. The volume of application was set to 10 mL/kg body weight. For assessment of the emetic events, animals were placed in the whole-body plethysmography boxes without any access to feed or water for 3 h. The whole-body plethysmography system used to detect emetic events consisted of five major components: 1) plethysmography boxes for mice (Buxco®, PLY 3211-F, Data Sciences International, New Brighton, MN, United States), 2) a pressure transducer with an amplifier, 3) a bias flow regulator, 4) a PC-based system to receive and process the amplified signals, and 5) a PC-based data acquisition system (NOTOCORD-hem™, Instem, Stone, United Kingdom) to process signals, as well as in-house-developed software to detect and identify changes in breathing pattern. Retching and vomiting induced characteristic changes in the breathing pattern of animals and these were recorded by whole-body plethysmography and translated for NOTOCORD recording. A number of preset definitions (computer-based criteria) characteristic for emetic events were determined. Peaks that met the set internal computer-based criteria and exceeded the threshold of more than 600 mV were labeled as emetic events by the system on a standard basis.

α-SMA protein expression = α-SMA protein expression of TGF-β-stimulated IPF lung fibroblasts (Western blot replacement assay); type: cell-based, human
Method: Fibroblasts from donors with IPF (IPF-LF) (Asterand, Detroit, MI, United States) were grown in fibroblast basal medium (CC-3131, Lonza Walkersville, Inc., Walkersville, MD, United States) supplemented with FGM-2 SingleQuot Kit Supplements and Growth Factors (CC-4126, Lonza). Cells were grown in a humidified incubator at 37°C and 5% CO2. All assays were performed at passage 7 or 8. For assay set-up, cells were seeded in fibroblast growth medium plus supplements in assay-relevant densities. For TGF-β-stimulated assays, cells were seeded at 4,500 cells per well in 96-well plates. Proliferation assays were performed in 96-well plates at an initial seeding cell density on day 0 of 2,000 cells per well. After 24-h, the cell culture medium was changed to starvation medium (fibroblast basal medium without supplements). After a 24-h starvation period, cells were pre-incubated for 30 min with different concentrations of BI 1015550 plus/minus different concentrations of nintedanib and/or 1 nmol/L PGE2 and stimulated with the assay-relevant stimulus for the indicated time in the presence of the compound.
For determination of α-SMA protein expression, IPF-LF cells were stimulated with TGF-β (4 ng/mL) for 48 h. Lysates were assayed in a Western blot replacement assay (MSD). In short, lysates were pipetted onto high binding plates (MSD) and were sequentially incubated with a mouse anti-human α-SMA antibody (Sigma Aldrich) and an anti-mouse sulfo-tag antibody (MSD). For analysis, an MSD sector imager was used.

T1 sequence (Q07343 324-656): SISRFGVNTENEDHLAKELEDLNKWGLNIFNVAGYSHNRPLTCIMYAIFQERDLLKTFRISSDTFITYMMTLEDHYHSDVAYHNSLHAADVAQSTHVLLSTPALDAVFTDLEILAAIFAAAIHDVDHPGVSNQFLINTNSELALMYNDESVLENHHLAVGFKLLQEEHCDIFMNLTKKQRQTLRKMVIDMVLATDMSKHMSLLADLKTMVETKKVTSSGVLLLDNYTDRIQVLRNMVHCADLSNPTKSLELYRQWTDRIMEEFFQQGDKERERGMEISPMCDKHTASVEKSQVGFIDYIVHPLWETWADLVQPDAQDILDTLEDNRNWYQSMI

Selectivity for inhibition of PDE4B versus PDE4D (PDE4B): roughly 10 fold
IC50 (PDE4B; human recombinant active site fragment, substrate [3H]cAMP, means from n independent experiments, read-out: IC50 PDE4B2): 10 nM
IC50 (PDE4C): 8700 nM
SMILES: [O-][S+]1CCc2nc(N3CCC(c4ncc(Cl)cn4)CC3)nc(NC3(CO)CCC3)c21 (stereo not shown) [BI 1015550]
Animals showing emesis (Suncus murinus; 0.5 mg/kg oral, 3 h observation, data not shown): 3 of 24
Mean emetic events per animal (Suncus murinus; 0.5 mg/kg oral, data not shown): 0.1
Animals showing emesis (Suncus murinus; 10 × ED50 oral (BI 1015550 6 mg/kg, roflumilast 10 mg/kg)): 5 out of 24
% of vomiting animals, emesis at 10 × ED50 (Suncus murinus; oral (BI 1015550 6 mg/kg, roflumilast 10 mg/kg), 24 animals): 21%
IC50 (α-SMA protein expression; TGF-β (4 ng/mL, 48 h)-stimulated IPF-LF): 210 nM
Additional inhibitory efficacy on α-SMA protein expression in combination (α-SMA protein expression; combination with nintedanib 10–100 nmol/L): did not result in additional inhibitory efficacy
Additional inhibitory effects in combination, myofibroblast transformation assay (α-SMA protein expression; combination with pirfenidone (100 µmol/L), data not shown): did not yield any additional inhibitory effects
